Reference: patent US12336981B2, “Compounds and compositions for the inhibition of NAMPT” (Valo Health, Inc., priority 2010, dated 2025)
pIC50: −log10 of the molar value. Like-named read-outs stand apart in the source and are kept apart here.

Legend:
NAMPT = target: T1, NAMPT (Homo sapiens, UniProt P43490); assay: Biochemical inhibition assay: NAMPT enzymatic reaction, NMN quantified by mass spectrometry; conditions: NAMPT enzymatic assay; read-out: Biochem IC50
T1 construct: His tag; host or cells: E. coli
Summary of the method: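 Inhibition of E. coli-expressed His-tagged human NAMPT, measured as NMN formation by mass spectrometry after a 30 min room-temperature reaction containing 1 μM NAM, 100 μM PRPP and 2.5 mM ATP.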

A2780 cells = assay: In-vitro cell proliferation assay (SRB), A2780 cells; format: cell-based; conditions: A2780 cells, 72 hours, SRB, read-out: A2780 IC50
Summary of the method: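 Read-out is SRB absorbance at 570 nm on TCA-fixed cells after 72 hours of compound treatment at 37° C. in 5% CO2. Background from a media-only plate is subtracted, and % inhibition is interpolated between two tested concentrations.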

T1 sequence (P43490 whole entry): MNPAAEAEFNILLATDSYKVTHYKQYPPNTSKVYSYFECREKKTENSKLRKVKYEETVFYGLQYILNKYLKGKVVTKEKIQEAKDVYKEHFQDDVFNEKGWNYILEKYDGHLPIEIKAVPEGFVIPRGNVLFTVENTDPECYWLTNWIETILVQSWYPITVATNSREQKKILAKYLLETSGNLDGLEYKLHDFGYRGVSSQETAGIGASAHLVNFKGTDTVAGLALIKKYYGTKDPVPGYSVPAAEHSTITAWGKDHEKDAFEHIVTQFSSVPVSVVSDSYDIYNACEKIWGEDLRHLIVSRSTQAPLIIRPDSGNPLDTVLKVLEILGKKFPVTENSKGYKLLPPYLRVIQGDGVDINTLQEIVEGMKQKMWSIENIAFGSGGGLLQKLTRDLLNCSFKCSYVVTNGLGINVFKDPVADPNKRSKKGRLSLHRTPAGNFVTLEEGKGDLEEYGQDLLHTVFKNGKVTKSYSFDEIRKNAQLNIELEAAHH

SMILES | pIC50 (NAMPT) | pIC50 (A2780 cells; Homo sapiens, A2780, 72 h) | pIC50 (A2780 cells)
O=C(NCc1ccc(S(=O)(=O)c2cccc3c2oc2ccccc23)cc1)c1cnc2nccn2c1 | 8.77 | 8.54 | –
O=C(NCc1ccc(S(=O)(=O)c2cccc3c2oc2ccccc23)cc1)c1cnc2[nH]ncc2c1 | 7.68 | 8.12 | –
O=C(NCc1ccc(S(=O)(=O)c2cccc3c2oc2ccccc23)cc1)c1cc2ccncc2o1 | 7.91 | 7.89 | –
O=C(NCc1ccc(S(=O)(=O)c2cccc3c2sc2ccccc23)cc1)c1cc2ccncc2o1 | 8.06 | 7.92 | –
O=C(NCc1ccc(S(=O)(=O)c2cccc3c2sc2ccccc23)cc1)c1cnc2nccn2c1 | 8.74 | 8.70 | –
O=C(NCc1ccc(S(=O)(=O)c2cccc3c2sc2ccccc23)cc1)c1cc2ccncc2s1 | 8.85 | 8.37 | –
CC(C)CNC(=O)c1cccc(S(=O)(=O)c2ccc(CNC(=O)c3cc4cnccc4[nH]3)cc2)c1 | 7.71 | 7.34 | –
O=C(NCc1ccc(S(=O)(=O)c2ccc(N3CCOCC3)cc2)cc1)c1cnc2nccn2c1 | 8.77 | 8.40 | –
O=C(NCc1ccc(S(=O)(=O)c2ccc(N3CCOCC3)cc2)cc1)c1cc2ccncc2s1 | 8.80 | 8.82 | –
O=C(NCc1ccc(S(=O)(=O)c2ccc(N3CCOCC3)cc2)cc1)c1ccc2nccn2c1 | 8.46 | 9.05 | –
CC(C)c1ccc(S(=O)(=O)c2ccc(CNC(=O)c3cnc4nccn4c3)cc2)cc1 | 8.77 | 8.09 | –
CC(C)c1ccc(S(=O)(=O)c2ccc(CNC(=O)c3cc4ccncc4o3)cc2)cc1 | 7.92 | 8.10 | –
CC(C)Oc1ccc(S(=O)(=O)c2ccc(CNC(=O)c3cc4ccncc4o3)cc2)cc1 | 8.17 | 8.24 | –
O=C(NCc1ccc(S(=O)(=O)c2ccc(N3CCCC3)cc2)cc1)c1ccc2cn[nH]c2n1 | 8.22 | 8.35 | –
O=C(NCc1ccc(S(=O)(=O)c2ccc(N3CCCC3)cc2)cc1)c1ccc2nccn2c1 | 8.52 | 8.85 | –
O=C(NCc1ccc(S(=O)(=O)c2ccc(OC(F)(F)F)cc2)cc1)c1cc2ccncc2o1 | 8.03 | – | 7.56
O=C(NCc1ccc(S(=O)(=O)c2ccc(OC(F)(F)F)cc2)cc1)c1cnc2nccn2c1 | 8.30 | 7.75 | –
O=C(NCc1ccc(S(=O)(=O)c2ccc(OC(F)(F)F)cc2)cc1)c1cnc2[nH]ncc2c1 | 7.46 | 7.65 | –
O=C(NCc1ccc(S(=O)(=O)c2ccc(C(F)(F)F)cc2)cc1)c1cnc2nccn2c1 | 8.22 | 7.63 | –
O=C(NCc1ccc(S(=O)(=O)c2ccc(C(F)(F)F)cc2)cc1)c1cc2ccncc2o1 | 8.06 | 7.70 | –

SMILES | pIC50 (NAMPT) | pIC50 (A2780 cells; Homo sapiens, A2780, 72 h) | pIC50 (A2780 cells)
O=C(NCc1ccc(S(=O)(=O)c2ccc(Cl)cc2C(F)(F)F)cc1)c1cc2ccncc2s1 | 8.15 | 8.02 | –
O=C(NCc1ccc(S(=O)(=O)c2ccc(Cl)cc2C(F)(F)F)cc1)c1ccc2nccn2c1 | 7.70 | 8.07 | –
O=C(NCc1ccc(S(=O)(=O)c2ccc(Cl)cc2C(F)(F)F)cc1)c1cc2cnccc2[nH]1 | 7.37 | 7.76 | –
O=C(NCc1ccc(S(=O)(=O)c2ccc(Cl)cc2C(F)(F)F)cc1)c1cnc2nccn2c1 | 8.10 | 7.16 | –
O=C(NCc1ccc(S(=O)(=O)c2ccc(Cl)cc2C(F)(F)F)cc1)c1cc2ccncc2o1 | 8.01 | 7.60 | –
O=C(NCc1ccc(S(=O)(=O)c2ccc(Cl)c(C(F)(F)F)c2)cc1)c1cc2ccncc2o1 | 8.22 | 8.16 | –
O=C(NCc1ccc(S(=O)(=O)c2ccc(Cl)c(C(F)(F)F)c2)cc1)c1cnc2nccn2c1 | 8.55 | 8.37 | –
CC(C)Oc1cc(F)ccc1S(=O)(=O)c1ccc(CNC(=O)c2cc3cnccc3[nH]2)cc1 | 7.60 | 8.48 | –
CC(C)Oc1cc(F)ccc1S(=O)(=O)c1ccc(CNC(=O)c2cc3ccncc3s2)cc1 | 8.30 | 8.80 | –
CC(C)Oc1cc(F)ccc1S(=O)(=O)c1ccc(CNC(=O)c2ccc3nccn3c2)cc1 | 7.65 | 8.68 | –
CC(C)Oc1cc(F)ccc1S(=O)(=O)c1ccc(CNC(=O)c2cc3ccncc3o2)cc1 | 7.81 | 7.86 | –
O=C(NCc1ccc(S(=O)(=O)c2ccc(F)cc2C(F)(F)F)cc1)c1cc2ccncc2s1 | 8.19 | 7.84 | –
O=C(NCc1ccc(S(=O)(=O)c2ccc(F)cc2C(F)(F)F)cc1)c1cnc2nccn2c1 | 7.73 | 6.00 to 7.00 | –
O=C(NCc1ccc(S(=O)(=O)c2ccc(F)cc2C(F)(F)F)cc1)c1cc2cnccc2[nH]1 | 7.57 | 7.85 | –
O=C(NCc1ccc(S(=O)(=O)c2ccc(F)cc2C(F)(F)F)cc1)c1ccc2nccn2c1 | 8.40 | 7.82 | –
O=C(NCc1ccc(S(=O)(=O)c2ccc(F)c(OCC(F)(F)F)c2)cc1)c1cc2ccncc2s1 | 8.48 | 7.93 | –
O=C(NCc1ccc(S(=O)(=O)c2ccc(F)c(OCC(F)(F)F)c2)cc1)c1cc2ccncc2o1 | 8.06 | 7.59 | –
O=C(NCc1ccc(S(=O)(=O)c2ccc(F)c(OCC(F)(F)F)c2)cc1)c1cnc2nccn2c1 | 8.62 | 8.19 | –
O=C(NCc1ccc(S(=O)(=O)c2ccc(F)c(OCC(F)(F)F)c2)cc1)c1cc2cnccc2[nH]1 | 7.99 | 8.19 | –
O=C(NCc1ccc(S(=O)(=O)c2ccc(F)c(C(F)(F)F)c2)cc1)c1cc2ccncc2s1 | 8.40 | 8.55 | –

SMILES | pIC50 (NAMPT) | pIC50 (A2780 cells; Homo sapiens, A2780, 72 h) | pIC50 (A2780 cells)
O=C(NCc1ccc(S(=O)(=O)c2ccc(F)c(C(F)(F)F)c2)cc1)c1cc2cnccc2[nH]1 | 7.79 | 8.37 | –
O=C(NCc1ccc(S(=O)(=O)c2ccc(F)c(C(F)(F)F)c2)cc1)c1ccc2nccn2c1 | 8.40 | 8.77 | –
O=C(NCc1ccc(S(=O)(=O)c2ccc(F)c(C(F)(F)F)c2)cc1)c1cc2ccncc2o1 | 8.09 | 8.14 | –
COc1ccc(S(=O)(=O)c2ccc(CNC(=O)c3cnc4nccn4c3)cc2)c(C(F)(F)F)c1 | 8.15 | 7.18 | –
COc1ccc(S(=O)(=O)c2ccc(CNC(=O)c3cc4ccncc4o3)cc2)c(C(F)(F)F)c1 | 7.84 | 7.82 | –
COc1ccc(S(=O)(=O)c2ccc(CNC(=O)c3cc4cnccc4[nH]3)cc2)c(C(F)(F)F)c1 | 7.09 | 7.89 | –
COc1ccc(S(=O)(=O)c2ccc(CNC(=O)c3cc4ccncc4s3)cc2)c(C(F)(F)F)c1 | 7.66 | 7.89 | –
CCN(CC)C(=O)c1ccc(F)c(S(=O)(=O)c2ccc(CNC(=O)c3cc4cnccc4[nH]3)cc2)c1 | 7.42 | 7.58 | –
O=C(NCc1ccc(S(=O)(=O)c2cc(Cl)ccc2OCC(F)F)cc1)c1ccc2nccn2c1 | 8.70 | 9.52 | –
O=C(NCc1ccc(S(=O)(=O)c2cc(Cl)ccc2OCC(F)F)cc1)c1cc2cnccc2[nH]1 | 8.30 | 9.30 | –
O=C(NCc1ccc(S(=O)(=O)c2cc(Cl)ccc2OCC(F)(F)F)cc1)c1ccc2nccn2c1 | 9.00 | 9.52 | –
C#CCOc1ccc(Cl)cc1S(=O)(=O)c1ccc(CNC(=O)c2ccc3nccn3c2)cc1 | 8.15 | 8.85 | –
CC(C)Oc1ccc(Cl)cc1S(=O)(=O)c1ccc(CNC(=O)c2cc3ccncc3o2)cc1 | 8.04 | 7.92 | –
O=C(NCc1ccc(S(=O)(=O)c2cc(F)ccc2CO)cc1)c1cc2cnccc2[nH]1 | 7.77 | 7.17 | –
O=C(NCc1ccc(S(=O)(=O)c2cc(F)ccc2CO)cc1)c1cc2ccncc2s1 | 8.11 | 7.60 | –
O=C(NCc1ccc(S(=O)(=O)c2cc(F)ccc2CO)cc1)c1ccc2nccn2c1 | 7.98 | 7.19 | –
O=C(NCc1ccc(S(=O)(=O)c2cc(F)ccc2CO)cc1)c1cnc2nccn2c1 | 7.89 | 6.00 to 7.00 | –
O=C(NCc1ccc(S(=O)(=O)c2cc(O)ccc2OC(F)(F)F)cc1)c1cc2ccncc2o1 | 8.19 | 7.94 | –
O=C(NCc1ccc(S(=O)(=O)c2cc(O)ccc2OC(F)(F)F)cc1)c1cnc2[nH]ncc2c1 | 7.66 | 7.17 | –
